This note sets out measurements from patent publication US20250154105A1, “POLYCYCLIC COMPOUND AND USE THEREOF” (TYK MEDICINES, INC., priority 2021, published 2025).

In assay [1] the test system is human pleural mesothelioma cells NCI-H226. Nature of the assay: Cell anti-proliferation experiment (CCK8), NCI-H226. In kind it is cell-based. The method in brief:
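Viability was measured by CCK-8 (3 h, A450) after 3-day treatment with 0.15–333.33 nM compound in 0.1% DMSO medium. Curve-fitted IC50 was based on viability normalised to no-drug and cell-free controls.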

Assay [2] concerns YAP-TEAD. Nature of the assay: YAP-TEAD inhibitor activity by Nano luciferase method (8xGTiiC-nLuc reporter in 293T cells). Type of assay: cell-based. Conditions: Homo sapiens, HEK-293T, 48 hours incubation, read-out: Nano-luciferase detection (IC50). The method, boiled down:
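293T cells transiently transfected with pGL3B-8xGTiiC-nLuc-CMV-fLuc, seeded 2000 cells/well, then treated 48 h at 37 °C with compounds in 1:3.16 dilution series (top 10,000 nM). Nano luciferase signal read after cell lysis; IC50 from percent of 0 nM control.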

A value given as a limit tells only on which side of the number the result lay.

A word on the IC50: it is the concentration needed to halve the response being measured. For `Cc1cc2c(=O)n(-c3ccc(C(F)(F)F)cc3)c3ncc(C(=O)N[C@@H](C)c4ccccn4)cc3c2s1` [Example T-404], the IC50 in assay [1] and in assay [2] was ≤ 1000 nM in each case.

Regarding `C[C@H](NC(=O)c1cnc2c(c1)c1sc(Cl)c(Br)c1c(=O)n2-c1ccc(C(F)(F)F)cc1)c1ccccn1` [Example T-405], the IC50 in assay [1] and in assay [2] was ≤ 1000 nM throughout.

Take `C[C@H](NC(=O)c1cnc2c(c1)c1cnccc1c(=O)n2-c1ccc(C(F)(F)F)cc1)c1ccccn1` [Example T-406]: the IC50 in assay [1] and in assay [2] was ≤ 1000 nM throughout.

With `C[C@H](NC(=O)c1cnc2c(c1)c1cc(F)ccc1c(=O)n2-c1ccc(C(F)(F)F)cc1)c1ccccn1` [Example T-407], the IC50 in assay [1] and in assay [2] was ≤ 1000 nM each time.

In the case of `Cc1ccc2c(=O)n(-c3ccc(C(F)(F)F)cc3)c3ncc(C(=O)N[C@@H](C)c4ccccn4)cc3c2c1` [Example T-408], the IC50 in assay [1] and in assay [2] was ≤ 1000 nM each time.

Consider `C[C@H](NC(=O)c1cnc2c(c1)c1nscc1c(=O)n2-c1ccc(C(F)(F)F)cc1)c1cccc(N)n1` [Example T-409], for which the IC50 in assay [1] and in assay [2] was ≤ 1000 nM throughout.

Turning to `C[C@H](NC(=O)c1cnc2c(c1)c1cc(C#N)ccc1c(=O)n2-c1ccc(C(F)(F)F)cc1)c1ccccn1` [Example T-410], the IC50 in assay [1] and in assay [2] was ≤ 1000 nM each time.

`C[C@H](NC(=O)c1ccc2c(c1)c1c(cnn1CC(F)(F)F)c(=O)n2-c1ccc(C(F)(F)F)cc1)c1ccccn1` [Example T-411]: the results for the IC50 in assay [1] and in assay [2] were 1000 to 5000 nM and ≤ 1000 nM, respectively.

`C=CC(=O)Nc1ccc2c(c1)cc(C)c(=O)n2-c1ccc(C(F)(F)F)cc1` [Example T-412]: the IC50 in assay [1] and in assay [2] was ≤ 1000 nM each time.

Take `Cc1cc(=O)n(-c2ccc(C(F)(F)F)cc2)c2ccc(C(=O)N[C@@H](C)c3cccc(N)n3)cc12` [Example T-413]: the IC50 in assay [1] and in assay [2] was ≤ 1000 nM throughout.

Regarding `Cc1cc2cc(C(=O)N[C@@H](C)c3cccc(N)n3)ccc2n(-c2ccc(C(F)(F)F)cc2)c1=O` [Example T-414], the IC50 in assay [1] and in assay [2] was ≤ 1000 nM in each case.

As for `Cc1cc2cc(C(=O)N[C@@H](C)c3ccccn3)ccc2n(-c2ccc(C(F)(F)F)cc2)c1=O` [Example T-415], the IC50 in assay [1] and in assay [2] was ≤ 1000 nM throughout.

As for `C[C@H](NC(=O)c1ccc2c(c1)cc(C(F)F)c(=O)n2-c1ccc(C(F)(F)F)cc1)c1cccc(N)n1` [Example T-417], the concentration for half-maximal inhibition (IC50) in assay [1] and in assay [2] was ≤ 1000 nM each time.

As to `C=CC(=O)Nc1ccc2c(c1)c1nscc1c(=O)n2-c1ccc(C(F)(F)F)cc1` [Example T-418], the IC50 in assay [1] and in assay [2] was ≤ 1000 nM throughout.

Take `C[C@H](NC(=O)c1ccc2c(c1)c1ncccc1c(=O)n2-c1ccc(C(F)(F)F)cc1)c1cccc(N)n1` [Example T-419]: the IC50 in assay [1] and in assay [2] was ≤ 1000 nM in each case.

Turning to `CNS(=O)(=O)c1ccc2c(c1)cc(C)c(=O)n2-c1ccc(C(F)(F)F)cc1` [Example T-421], the IC50 in assay [1] and in assay [2] was ≤ 1000 nM throughout.

`C[C@H](NC(=O)c1ccc2c(ccc(=O)n2-c2ccc(C(F)(F)F)cc2)c1)c1cccc(N)n1` [Example T-423]: the IC50 in assay [1] and in assay [2] was ≤ 1000 nM each time.

For the compound `C=CC(=O)Nc1ccc2c(c1)c1c(c(=O)n2-c2ccc(C(F)(F)F)cc2)CCC1` [Example T-424], the IC50 in assay [1] and in assay [2] was ≤ 1000 nM throughout.

With `C[C@H](NC(=O)c1ccc2c(c1)c1c(c(=O)n2-c2ccc(C(F)(F)F)cc2)CCC1)c1cccc(N)n1` [Example T-425], the half-maximal inhibitory concentration (IC50) in assay [1] and in assay [2] was ≤ 1000 nM each time.

Turning to `COC[C@H](C)NC(=O)c1ccc2c(c1)C1=C(CCC1)CN2c1ccc(C(F)(F)F)cc1` [Example T-426], the IC50 in assay [1] and in assay [2] was ≤ 1000 nM in each case.

As to `CNS(=O)(=O)c1ccc2c(c1)c1c(c(=O)n2-c2ccc(C(F)(F)F)cc2)CCC1` [Example T-427], the IC50 in assay [1] and in assay [2] was ≤ 1000 nM throughout.

Consider `C[C@H](NC(=O)c1ccc2c(c1)c1c(c(=O)n2-c2ccc(C(F)(F)F)cc2)CCCC1)c1cccc(N)n1` [Example T-428], for which the IC50 in assay [1] and in assay [2] was ≤ 1000 nM each time.

As to `C[C@H](NC(=O)c1ccc2c(c1)c1sccc1c(=O)n2-c1ccc(C(F)(F)F)cc1)c1cccc(N)n1` [Example T-429], the IC50 in assay [1] and in assay [2] was ≤ 1000 nM throughout.

With `CNc1cccc([C@H](C)NC(=O)c2ccc3c(ccc(=O)n3-c3ccc(C(F)(F)F)cc3)c2)n1` [Example T-430], the half-inhibitory concentration (IC50) in assay [1] and in assay [2] was ≤ 1000 nM each time.

With `Cc1c(C)c2cc(C(=O)N[C@@H](C)c3cccc(N)n3)ccc2n(-c2ccc(C(F)(F)F)cc2)c1=O` [Example T-431], the IC50 in assay [1] and in assay [2] was ≤ 1000 nM in each case.

For the compound `CS(=O)(=O)Nc1ccc2c(c1)c1c(c(=O)n2-c2ccc(C(F)(F)F)cc2)CCC1` [Example T-432], the IC50 in assay [1] and in assay [2] was ≤ 1000 nM in each case.

In the case of `C[C@H](NC(=O)c1ccc2c(c1)c1cnccc1c(=O)n2-c1ccc(C(F)(F)F)cc1)c1cccc(N)n1` [Example T-434], the IC50 in assay [1] and in assay [2] was ≤ 1000 nM each time.

As to `C[C@H](NC(=O)c1ccc2c(c1)c1nscc1c(=O)n2-c1ccc(C(F)(F)F)cc1)c1cccc(N)n1` [Example T-435], the IC50 in assay [1] and in assay [2] was ≤ 1000 nM each time.

As to `Cc1c(C)c2cc(C(=O)N[C@@H](C)c3ccccn3)ccc2n(-c2ccc(C(F)(F)F)cc2)c1=O` [Example T-436], the IC50 in assay [1] and in assay [2] was ≤ 1000 nM throughout.

On to `C[C@H](NC(=O)c1cnc2c(c1)c1ccccc1c(=O)n2-c1ccc(C(F)(F)F)cc1)c1cccc(N)n1` [Example T-437], for which the IC50 in assay [1] and in assay [2] was ≤ 1000 nM each time.

`C[C@H](NC(=O)c1cnc2c(c1)c1csnc1c(=O)n2-c1ccc(C(F)(F)F)cc1)c1ccccn1` [Example T-439]: the IC50 in assay [1] and in assay [2] was ≤ 1000 nM each time.

For `CC1CCc2c1c1cc(C(=O)N[C@@H](C)c3ccccn3)ccc1n(-c1ccc(C(F)(F)F)cc1)c2=O` (stereo partly drawn) [Example T-445], the IC50 in assay [1] and in assay [2] was ≤ 1000 nM throughout.

With `C[C@@H]1CCc2c1c(=O)n(-c1ccc(C(F)(F)F)cc1)c1ccc(C(=O)N[C@@H](C)c3ccccn3)cc21` [Example T-446], the IC50 in assay [1] and in assay [2] was ≤ 1000 nM throughout.

Consider `COC[C@@H](C)NC(=O)c1ccc2c(c1)c1cnccc1c(=O)n2-c1ccc(C(F)(F)F)cc1` [Example T-448], for which the IC50 in assay [1] and in assay [2] was 1000 to 5000 nM throughout.

`C[C@H](NC(=O)c1cnc2c(c1)c1cscc1c(=O)n2-c1ccc(C(F)(F)F)cc1)c1cccc(N)n1` [Example T-454]: the IC50 in assay [1] and in assay [2] was ≤ 1000 nM each time.

Turning to `C[C@H](NC(=O)c1cnc2c(ccc(=O)n2-c2ccc(C(F)(F)F)cc2)c1)c1cccc(N)n1` [Example T-455], the IC50 in assay [1] and in assay [2] was ≤ 1000 nM in each case.

In the case of `C[C@H](NC(=O)c1cnc2c(ccc(=O)n2-c2ccc(C(F)(F)F)cc2)c1)c1ccccn1` [Example T-456], the IC50 in assay [1] and in assay [2] was ≤ 1000 nM throughout.

As for `Cc1cc(=O)n(-c2ccc(C(F)(F)F)cc2)c2ncc(C(=O)N[C@@H](C)c3cccc(N)n3)cc12` [Example T-457], the IC50 in assay [1] and in assay [2] was ≤ 1000 nM in each case.

With `Cc1cc(=O)n(-c2ccc(C(F)(F)F)cc2)c2ncc(C(=O)N[C@@H](C)c3ccccn3)cc12` [Example T-458], the IC50 in assay [1] and in assay [2] was ≤ 1000 nM in each case.

As to `Cc1cc(=O)n(-c2ccc(C(F)(F)F)cc2)c2ncc(C(=O)N[C@@H](C)c3ccccc3)cc12` [Example T-459], the IC50 in assay [1] and in assay [2] was ≤ 1000 nM throughout.

On to `Cc1cc2cc(C(=O)N[C@@H](C)c3ccccn3)cnc2n(-c2ccc(C(F)(F)F)cc2)c1=O` [Example T-460], for which the IC50 in assay [1] and in assay [2] was ≤ 1000 nM each time.

In the case of `Cc1cc2cc(C(=O)N[C@@H](C)c3ccccc3)cnc2n(-c2ccc(C(F)(F)F)cc2)c1=O` [Example T-462], the IC50 in assay [1] and in assay [2] was ≤ 1000 nM each time.
